Assays:
[1] = tested on: K-562; experiment: Cell viability assay (resazurin); format: cell-based; settings: Homo sapiens, K562; K-562, 72 h, mean ± SD
Protocol: (§1) Cell culture. MV4-11, HL60, K-562, THP-1, MO91, and U937 cell lines were from the ATCC (Rockville, MD, USA); MOLM-13, NB4, and PL21 cell lines were from the DSMZ (Braunschweig, Germany); and Jurkat cells were from the ECACC (Salisbury, UK). All cells were cultured in RPMI medium (Sigma-Aldrich) supplemented with 10% to 20% of heat-inactivated fetal bovine serum (Sigma-Aldrich), and cells were maintained at 37 °C, 5% CO2, and 95% humidity. All the cell lines were tested to be mycoplasma-negative using MycoAlert^TM mycoplasma detection kit (Lonza, Derrimut, VIC, Australia).
(§2) Cell viability assay. The viability of leukemia cell lines after incubation with CDDD11-8 was determined by their ability to reduce resazurin, as described previously. Cells (5 × 10^3) were seeded into 96-well plates (Corning Inc., Corning, NY, USA) and incubated overnight at 37 °C. Subsequently, they were incubated with CDDD11-8 (concentrations ranging from 0.003 µM to 31.6 µM; using three-fold serial dilutions) or DMSO (final concentration of 0.1%) for 72 h. Afterwards, cells were incubated with 20 µL of resazurin (0.1 mg/mL in PBS) for 4 h at 37 °C under 5% CO2, and the fluorescence intensities were measured using an EnVision® multilabel plate reader at 570 nm (excitation)/585 nm (emission). The concentration required to inhibit cellular growth by 50% (GI50) was determined using the same non-linear regression model as shown above, with Ar (%) = % cell viability, and IC50 replaced with GI50.

[2] = tested on: PL21; experiment: Cell viability assay (resazurin); format: cell-based; settings: PL21, 72 h, mean ± SD
Protocol: as §1, §2

[3] = tested on: THP-1; experiment: Cell viability assay (resazurin); format: cell-based; settings: THP-1, 72 h, mean ± SD
Protocol: as §1, §2

[4] = tested on: HL60; experiment: Cell viability assay (resazurin); format: cell-based; settings: Homo sapiens, HL-60; HL60, 72 h, mean ± SD
Protocol: as §1, §2

[5] = tested on: U937; experiment: Cell viability assay (resazurin); format: cell-based; settings: Homo sapiens, U-937; U937, 72 h, mean ± SD
Protocol: as §1, §2

[6] = tested on: JURKAT; experiment: Cell viability assay (resazurin); format: cell-based; settings: Homo sapiens, 72 h, mean ± SD
Protocol: as §1, §2

[7] = tested on: MOLM-13; experiment: Cell viability assay (resazurin); format: cell-based; settings: MOLM-13, 72 h, mean ± SD
Protocol: as §1, §2

[8] = tested on: NB4; experiment: Cell viability assay (resazurin); format: cell-based; settings: Homo sapiens, NB-4; NB4, 72 h, mean ± SD
Protocol: as §1, §2

[9] = target: T1, DMPK2 (Homo sapiens, UniProt Q6DT37); experiment: Kinase Hotspot radiolabel assay; format: biochemical; settings: read-out: % Residual Activity
T1 construct: purchased Reaction Biology Corporation (Kinase HotSpot)
Protocol: (§3) Kinase assay. The ADP Glo^TM kinase assay (Promega, Madison, WI, USA) was used to assess the inhibition by CDDD11-8 of CDKs 1, 2, 4, 6, 7, and 9, as well as the mutant isoforms of FLT3. The assays were performed in accord with the manufacturer’s protocol (Promega) as described previously. Briefly, serial three-fold dilutions of CDDD11-8 were prepared in 100% DMSO from a 2 mM stock solution, followed by 1:40 dilution into Milli-Q water. Subsequently, 1 µL of each sample was incubated with 4 µL of kinase mixture containing a particular CDK enzyme and its substrate, standard kinase buffer [3 mM MgCl2, 50 mM HEPES-NaOH pH 7.5, 3 mM MnCl2, 3 µM Na-orthovanadate, 1 mM dithiothreitol (DTT)], kinase dilution buffer (containing 0.25 mg/mL PEG20,000, 50 mM HEPES-NaOH pH 7.5, 1 mM DTT), and ATP at 37 °C for 30 to 40 min. The final reaction mixture contained 0.5% DMSO in all samples, and the applied kinase concentrations were 1, 1, 10, 40, 20, and 50 nM for CDK1, 2, 4, 6, 7, and 9, respectively. The reaction was stopped by adding ADP-Glo reagent and the mixture was incubated further in the dark at room temperature for 40 min. As a final step, kinase detection reagent was added to each mixture and incubated at room temperature for 30 to 60 min. Luminescence was read using an EnVision® multilabel plate reader (PerkinElmer, Beaconsfield, UK), and half-maximum inhibitory concentrations (IC50) were calculated using a non-linear regression model with a variable slope, plotting log (inhibitor concentration) vs. response using the following formula: Ar%=Bottom+Top−Bottom/1+Inhibitor Concentration/IC50^HillSlope where the relative activity Ar (%) is the signal relative to the controls, IC50 is the half maximum concentration, Hillslope is the steepness of the dose-response curve, Top and Bottom are plateaus reflecting the maximum and minimum in responses on the Y-axis (GraphPad Prism version 7, San Diego, CA, USA). Ki values were calculated from the IC50 using the Cheng−Prusoff equation [32]. Extensive specificity assessment was carried out by Reaction Biology Corporation (Malvern, PA, USA) with 369 kinases using 1 µM CDDD11-8 concentration in a Kinase Hotspot radiolabel assay (for experimental details, please see (Reaction Biology https://www.reactionbiology.com/). Subsequently, Ki values were determined for kinases with greater than 90% inhibition.

[10] = target: T2, MNK1 (Homo sapiens, UniProt Q9BUB5); experiment: Kinase Hotspot radiolabel assay; format: biochemical; settings: read-out: % Residual Activity
T2 construct: purchased Reaction Biology Corporation (Kinase HotSpot)
Protocol: as §3

[11] = target: T3, CLK2 (Homo sapiens, UniProt P49760); experiment: Kinase Hotspot radiolabel assay; format: biochemical; settings: read-out: % Residual Activity
T3 construct: purchased Reaction Biology Corporation (Kinase HotSpot)
Protocol: as §3

[12] = target: T4, MST2/STK3 (Homo sapiens, UniProt Q13188); experiment: Kinase Hotspot radiolabel assay; format: biochemical; settings: read-out: % Residual Activity
T4 construct: purchased Reaction Biology Corporation (Kinase HotSpot)
Protocol: as §3

[13] = target: T5, DAPK2 (Homo sapiens, UniProt Q9UIK4); experiment: Kinase Hotspot radiolabel assay; format: biochemical; settings: read-out: % Residual Activity
T5 construct: purchased Reaction Biology Corporation (Kinase HotSpot)
Protocol: as §3

[14] = target: T6, LOK/STK10 (Homo sapiens, UniProt O94804); experiment: Kinase Hotspot radiolabel assay; format: biochemical; settings: read-out: % Residual Activity
T6 construct: purchased Reaction Biology Corporation (Kinase HotSpot)
Protocol: as §3

[15] = target: T7, STK25/YSK1 (Homo sapiens, UniProt O00506); experiment: Kinase Hotspot radiolabel assay; format: biochemical; settings: read-out: % Residual Activity
T7 construct: purchased Reaction Biology Corporation (Kinase HotSpot)
Protocol: as §3

[16] = target: T8, MYO3A (Homo sapiens, UniProt Q8NEV4); experiment: Kinase Hotspot radiolabel assay; format: biochemical; settings: read-out: % Residual Activity
T8 construct: purchased Reaction Biology Corporation (Kinase HotSpot)
Protocol: as §3

[17] = target: T9, CDK9/cyclin T2 (Homo sapiens, UniProt P50750); experiment: Kinase Hotspot radiolabel assay; format: biochemical; settings: read-out: % Residual Activity
T9 construct: purchased Reaction Biology Corporation (Kinase HotSpot)
Protocol: as §3

[18] = target: T10, RSK3 (Homo sapiens, UniProt Q15349); experiment: Kinase Hotspot radiolabel assay; format: biochemical; settings: read-out: % Residual Activity
T10 construct: purchased Reaction Biology Corporation (Kinase HotSpot)
Protocol: as §3

[19] = target: T11, COT1/MAP3K8 (Homo sapiens, UniProt P41279); experiment: Kinase Hotspot radiolabel assay; format: biochemical; settings: read-out: % Residual Activity
T11 construct: purchased Reaction Biology Corporation (Kinase HotSpot)
Protocol: as §3

T11 sequence (P41279 whole entry): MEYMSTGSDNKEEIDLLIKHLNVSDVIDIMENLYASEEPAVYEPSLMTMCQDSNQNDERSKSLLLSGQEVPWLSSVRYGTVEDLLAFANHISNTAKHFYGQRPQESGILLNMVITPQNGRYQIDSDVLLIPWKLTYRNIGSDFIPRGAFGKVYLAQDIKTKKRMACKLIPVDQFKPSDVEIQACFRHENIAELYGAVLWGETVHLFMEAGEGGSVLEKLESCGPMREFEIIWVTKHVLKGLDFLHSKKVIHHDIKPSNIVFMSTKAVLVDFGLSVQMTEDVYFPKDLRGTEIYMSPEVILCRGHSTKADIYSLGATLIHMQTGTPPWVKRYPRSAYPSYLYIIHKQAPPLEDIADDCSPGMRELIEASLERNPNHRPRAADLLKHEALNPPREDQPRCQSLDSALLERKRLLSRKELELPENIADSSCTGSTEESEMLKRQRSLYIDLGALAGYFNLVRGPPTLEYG
T9 sequence (P50750 whole entry): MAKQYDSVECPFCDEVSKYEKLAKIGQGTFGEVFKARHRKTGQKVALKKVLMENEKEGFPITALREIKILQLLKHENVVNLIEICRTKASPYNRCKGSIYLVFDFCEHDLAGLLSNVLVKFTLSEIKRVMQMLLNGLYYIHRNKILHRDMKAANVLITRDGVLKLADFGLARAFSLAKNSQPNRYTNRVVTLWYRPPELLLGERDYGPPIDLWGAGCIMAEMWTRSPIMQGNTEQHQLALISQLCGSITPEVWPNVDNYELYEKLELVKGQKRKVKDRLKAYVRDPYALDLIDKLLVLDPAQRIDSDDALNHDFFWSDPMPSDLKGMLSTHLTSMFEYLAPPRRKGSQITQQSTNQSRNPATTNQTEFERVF
T9 sequence (O60583 whole entry partner): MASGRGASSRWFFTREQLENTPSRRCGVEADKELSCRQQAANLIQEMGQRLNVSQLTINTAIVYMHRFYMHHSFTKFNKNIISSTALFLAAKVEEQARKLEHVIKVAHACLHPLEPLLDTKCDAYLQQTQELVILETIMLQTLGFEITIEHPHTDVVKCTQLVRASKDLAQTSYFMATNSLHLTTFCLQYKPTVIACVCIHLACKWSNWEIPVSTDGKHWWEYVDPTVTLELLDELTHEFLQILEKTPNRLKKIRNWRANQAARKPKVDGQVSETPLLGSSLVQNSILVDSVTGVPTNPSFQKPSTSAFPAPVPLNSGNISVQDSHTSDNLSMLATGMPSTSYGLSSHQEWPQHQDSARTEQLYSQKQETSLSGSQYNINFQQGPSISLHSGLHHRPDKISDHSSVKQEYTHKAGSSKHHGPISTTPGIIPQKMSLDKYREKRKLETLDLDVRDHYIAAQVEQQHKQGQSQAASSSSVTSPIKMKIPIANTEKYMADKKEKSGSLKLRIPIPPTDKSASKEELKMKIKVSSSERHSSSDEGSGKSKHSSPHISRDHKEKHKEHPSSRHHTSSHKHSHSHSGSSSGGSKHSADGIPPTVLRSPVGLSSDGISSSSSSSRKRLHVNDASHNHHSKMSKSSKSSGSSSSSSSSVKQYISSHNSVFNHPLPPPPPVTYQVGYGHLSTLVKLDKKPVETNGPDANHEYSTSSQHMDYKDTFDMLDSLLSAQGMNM
T3 sequence (P49760 whole entry): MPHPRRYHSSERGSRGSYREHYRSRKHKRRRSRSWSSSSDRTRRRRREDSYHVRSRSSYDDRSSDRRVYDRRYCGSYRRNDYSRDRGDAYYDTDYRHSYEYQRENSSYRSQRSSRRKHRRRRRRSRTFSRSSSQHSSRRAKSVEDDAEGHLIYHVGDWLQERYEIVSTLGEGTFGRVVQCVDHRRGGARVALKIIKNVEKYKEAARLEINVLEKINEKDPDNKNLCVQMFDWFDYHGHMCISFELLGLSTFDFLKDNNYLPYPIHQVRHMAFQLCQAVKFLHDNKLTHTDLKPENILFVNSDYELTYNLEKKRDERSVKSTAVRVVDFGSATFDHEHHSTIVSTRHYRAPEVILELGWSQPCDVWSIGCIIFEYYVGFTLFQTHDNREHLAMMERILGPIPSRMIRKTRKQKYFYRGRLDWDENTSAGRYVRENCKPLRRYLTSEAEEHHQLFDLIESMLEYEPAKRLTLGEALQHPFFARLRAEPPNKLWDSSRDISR
T10 sequence (Q15349 whole entry): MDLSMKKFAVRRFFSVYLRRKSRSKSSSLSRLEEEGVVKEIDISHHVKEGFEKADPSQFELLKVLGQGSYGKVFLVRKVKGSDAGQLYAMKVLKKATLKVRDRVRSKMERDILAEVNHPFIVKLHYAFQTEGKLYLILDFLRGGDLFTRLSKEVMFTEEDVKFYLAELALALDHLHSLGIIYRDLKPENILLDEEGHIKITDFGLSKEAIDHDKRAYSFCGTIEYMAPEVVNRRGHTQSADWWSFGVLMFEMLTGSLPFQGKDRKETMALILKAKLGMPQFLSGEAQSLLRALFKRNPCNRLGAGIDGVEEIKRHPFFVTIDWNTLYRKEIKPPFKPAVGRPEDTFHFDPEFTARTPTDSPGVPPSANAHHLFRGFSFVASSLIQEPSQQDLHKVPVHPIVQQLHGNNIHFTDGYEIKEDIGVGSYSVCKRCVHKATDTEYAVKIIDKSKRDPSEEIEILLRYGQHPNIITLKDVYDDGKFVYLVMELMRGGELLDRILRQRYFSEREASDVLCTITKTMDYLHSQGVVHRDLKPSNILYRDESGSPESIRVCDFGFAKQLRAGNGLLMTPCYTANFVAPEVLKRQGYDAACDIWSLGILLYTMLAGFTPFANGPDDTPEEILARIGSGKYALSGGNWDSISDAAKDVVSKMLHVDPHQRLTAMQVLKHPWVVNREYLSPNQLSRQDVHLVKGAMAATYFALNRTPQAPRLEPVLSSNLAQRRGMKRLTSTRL
T1 sequence (Q6DT37 whole entry): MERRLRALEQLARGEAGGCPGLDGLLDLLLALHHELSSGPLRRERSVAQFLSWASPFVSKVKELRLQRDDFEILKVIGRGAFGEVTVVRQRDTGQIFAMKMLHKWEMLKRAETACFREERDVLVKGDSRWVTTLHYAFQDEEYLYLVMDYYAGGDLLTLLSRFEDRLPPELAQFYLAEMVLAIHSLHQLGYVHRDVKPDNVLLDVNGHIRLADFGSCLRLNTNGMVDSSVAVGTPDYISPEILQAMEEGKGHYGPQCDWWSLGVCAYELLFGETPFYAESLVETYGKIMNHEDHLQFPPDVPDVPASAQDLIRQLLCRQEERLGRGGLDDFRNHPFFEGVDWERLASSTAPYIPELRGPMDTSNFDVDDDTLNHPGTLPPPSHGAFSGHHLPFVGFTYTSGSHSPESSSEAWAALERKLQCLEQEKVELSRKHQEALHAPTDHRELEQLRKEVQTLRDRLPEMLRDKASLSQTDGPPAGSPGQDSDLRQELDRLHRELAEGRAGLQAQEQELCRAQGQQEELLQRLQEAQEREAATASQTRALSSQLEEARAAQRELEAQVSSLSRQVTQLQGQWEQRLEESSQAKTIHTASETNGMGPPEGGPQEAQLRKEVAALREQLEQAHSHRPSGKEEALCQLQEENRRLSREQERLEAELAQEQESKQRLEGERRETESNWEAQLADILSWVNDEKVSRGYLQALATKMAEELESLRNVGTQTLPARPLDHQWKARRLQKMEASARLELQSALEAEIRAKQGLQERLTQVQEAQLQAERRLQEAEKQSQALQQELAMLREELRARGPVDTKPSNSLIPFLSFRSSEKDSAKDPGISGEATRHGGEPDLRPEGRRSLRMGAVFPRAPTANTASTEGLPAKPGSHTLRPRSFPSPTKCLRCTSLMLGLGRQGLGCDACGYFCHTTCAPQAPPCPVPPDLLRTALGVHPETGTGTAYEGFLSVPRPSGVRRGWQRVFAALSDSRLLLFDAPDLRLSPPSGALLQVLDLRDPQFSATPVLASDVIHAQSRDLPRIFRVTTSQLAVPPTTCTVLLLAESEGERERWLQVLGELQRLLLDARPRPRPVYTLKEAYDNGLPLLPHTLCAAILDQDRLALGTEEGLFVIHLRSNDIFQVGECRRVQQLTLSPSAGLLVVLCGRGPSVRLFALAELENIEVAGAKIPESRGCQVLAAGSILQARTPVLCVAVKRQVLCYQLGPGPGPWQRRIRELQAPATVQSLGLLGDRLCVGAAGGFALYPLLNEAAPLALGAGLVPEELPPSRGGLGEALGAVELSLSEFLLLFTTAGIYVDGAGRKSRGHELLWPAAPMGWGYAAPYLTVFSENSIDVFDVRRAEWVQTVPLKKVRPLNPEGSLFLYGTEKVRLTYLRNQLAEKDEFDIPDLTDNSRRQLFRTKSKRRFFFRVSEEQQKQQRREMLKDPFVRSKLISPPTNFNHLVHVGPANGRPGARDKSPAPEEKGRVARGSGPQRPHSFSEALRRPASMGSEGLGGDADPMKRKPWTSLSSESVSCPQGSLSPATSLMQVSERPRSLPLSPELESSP
T5 sequence (Q9UIK4 whole entry): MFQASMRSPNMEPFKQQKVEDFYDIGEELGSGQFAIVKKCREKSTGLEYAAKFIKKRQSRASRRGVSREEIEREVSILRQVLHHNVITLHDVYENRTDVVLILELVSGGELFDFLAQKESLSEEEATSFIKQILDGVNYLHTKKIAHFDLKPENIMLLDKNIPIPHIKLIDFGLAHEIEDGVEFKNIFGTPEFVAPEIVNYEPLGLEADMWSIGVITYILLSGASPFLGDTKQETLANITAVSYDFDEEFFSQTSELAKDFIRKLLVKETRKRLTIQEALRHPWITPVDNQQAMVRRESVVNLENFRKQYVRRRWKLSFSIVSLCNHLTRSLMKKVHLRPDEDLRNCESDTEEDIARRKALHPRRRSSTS

Cc1cnc(N[C@H]2CC[C@H](N)CC2)nc1-c1cnc2ccc(-c3ccccc3)cn12 [CDDD11-8] gave a GI50 [1] of 1500 ± 47 nM, a GI50 [2] of 339 ± 34 nM and a GI50 ([2]; PL-21, 72 h) of 340 nM. For the same molecule, the GI50 ([3]; Homo sapiens) was 460 nM, the GI50 [3] was 459 ± 40 nM and the GI50 [4] was 475 ± 25 nM. The GI50 [5] was 713 ± 93 nM, the GI50 [6] was 599 ± 90 nM and the GI50 ([7]; Homo sapiens) was < 100 nM. It also gave a GI50 [7] of 70 ± 20 nM, a GI50 [8] of 473 ± 107 nM and a remaining activity at 1 µM [9] of 26.3%. For the same molecule, the remaining activity at 1 µM [10] was 76.4%, the remaining activity at 1 µM [11] was 47% and the remaining activity at 1 µM [12] was 15%. The remaining activity at 1 µM [13] was 81.2%, the remaining activity at 1 µM [14] was 55.8% and the remaining activity at 1 µM [15] was 97.2%. It also gave a remaining activity at 1 µM [16] of 87.3%, a remaining activity at 1 µM [17] of 2.35% and a remaining activity at 1 µM [18] of 45.6%. The remaining activity at 1 µM [19] was 101%.

Source: PMC8909834, “An Orally Bioavailable and Highly Efficacious Inhibitor of CDK9/FLT3 for the Treatment of Acute Myeloid Leukemia” (Cancers, 2022)
